Earlier results, collected in article PMC9729070 (Bioorganic & medicinal chemistry letters, 2022).

Columns and labels:
[1] = Phase I clinical trials
[2] = CRPC patients

Row | bioavailability [1] | SMILES | survival time prolongation [2]
1 | unacceptable bioavailability | O=C(Nc1ccc([N+](=O)[O-])cc1Cl)c1cc(Cl)ccc1O [Niclosamide (1), Niclosamide] | 
2 |  | CNC(=O)c1ccc(N2C(=S)N(c3ccc(C#N)c(C(F)(F)F)c3)C(=O)C2(C)C)cc1F [enzalutamide (Xtandi), enzalutamide] | five
